The IC50 is the concentration needed to halve the response being measured.

The subject of experiment [1] is MCF-7 human breast cancer cells. The experiment can be described thus: Cytotoxicity test, XTT assay. The format is cell-based. More on the design: Average (XTT metabolic signal): unit not given here. The following applies: for IC50: 74 hr incubation, XTT. How it is done:
MCF-7 human breast cancer cells (ATCC HTB-22) were plated in 96-well plates at an initial density of 5000 cells per well in 90 μL of RMPI 1640 supplemented with 10% fetal bovine serum, 100 IU penicillin, and 100 μg/mL streptomycin, 2 mM L-glutamine, and maintained at 37° C. and 5% CO2 atmosphere. After 24 hr, stock solutions of 17-GAOH in DMSO and GA-(VKG)8ELP1-120 were diluted 10-fold with growth media and added to wells (6 wells) as […] (1% v/v final DMSO concentration). The cells were incubated with the compounds for 74 hr and the metabolic rate was determined using an XTT™ assay kit (Sigma) according to the manufacturer's instructions. The concentrations inhibiting cell growth by 50% (IC50) were determined by fixed Hill slope regression with SIGMA PLOT™ 2004 (Systat Software, Inc.).
For orientation: Formazan colour is commonly taken as a measure of viable cells.

For another experiment, the system named is mouse mammary tumors. The following applies: 43° C. hyperthermia; cited from earlier work.

With `CO[C@H]1/C=C\C=C(/C)C(=O)NC2=CC(=O)C(NCCO)=C(C[C@@H](C)C[C@H](OC)[C@H](O)[C@@H](C)/C=C(\C)[C@@H]1OC(N)=O)C2=O` [17-HEA-DMGA, 17-β-hydroxyethylamino-17-demethoxygeldanamycin], the half-maximal inhibitory concentration (IC50) was 855 nM in experiment [1] (test 1) and 731 nM in experiment [1] (test 2). The “Average (XTT metabolic signal)” value is 1158 in experiment [1] (test 1, final concentration 0.1 nM); 1288 in experiment [1] (test 1, final concentration 1 nM); 1274 in experiment [1] (test 1, final concentration 10 nM); 1588 in experiment [1] (test 1, final concentration 100 nM); 344 in experiment [1] (test 1, final concentration 1,000 nM); 114 in experiment [1] (test 1, final concentration 10,000 nM). The “Average (XTT metabolic signal)” value in experiment [1] (test 2, final concentration 50 nM) worked out at 788.5; in experiment [1] (test 2, final concentration 100 nM) it was 999.7; in experiment [1] (test 2, final concentration 250 nM) it was 774.3; in experiment [1] (test 2, final concentration 500 nM) it was 515.0; in experiment [1] (test 2, final concentration 1,000 nM), 297.5; in experiment [1] (test 2, final concentration 2,000 nM), 46.9.
With `N.N.[Cl][Pt][Cl]` [Cisplatin], the “increase of thermal enhancement ratio (TER)” value in the experiment on mouse mammary tumors is 1.4-5.0 fold.

The record behind these values is patent US20100119529A1, “ELASTIN-LIKE POLYMER DELIVERY VEHICLES” (priority 2006, published 2010).
